One compound from US6710090B2, “Inhibitory or blocking agents of molecular generating and/or inducing functions” (priority 1994, dated 2004) can be followed below.

The target in data set [1] is T1, Recombinant Taq DNA Polymerase (Thermus aquaticus, UniProt P19821).
T1 construct: purchased TaKaRa Shuzo Co., Otsu city R001A
Nature of the data set: PCR with polymerase enzymes treated with Yoshixol. The data set is classed as biochemical. The protocol:
Effect of Yoshixol on PCR was investigated by DNA template which was extracted from snake (blue-green snake, captured at Matsumoto city, Nagano). The new synthesized dimer of (SEQ ID NO: 2) (5′>CTTCGGGCTTCGGG<3′) with 7 base-pair alignment (CTTCGGG) above-mentioned was used as a primer. PCR reaction was done by use of DNA thermal cycler (PJ-2000) made in PERKIN ELMER CETUS company. The following six combinations were prepared for the test samples. Those are two kinds of samples which consist of 5 μl of primer (100 pico mole/μl) with 5 μl of Yoshixol (P+) and without Yoshixol (P−). In addition, two kinds of samples which consist of 5 μl. of snake DNA (500 ng/μl) with 5 μl of Yoshixol (D+) and without Yoshixol (D−). And, additional two kinds of samples which consist of 1 μl of polymerase enzymes (Recombinant Taq DNA Polymerase, No. R001A, TaKaRa Shuzo Co., Otsu city: 5 unit/pd) with 1 μl of Yoshixol (Pm+) and without Yoshixol (Pm−). After each sample was placed for 10 minutes at room temperature, each sample was diluted in distilled water. And, it is adjusted in a primer solution of 10 picomole/μl, DNA solution of 50 ng/μl and a polymerase enzymes solution of 0.5 unit/μl. Then, the following combinations were prepared. […] In each combination, amount of cDNA synthesis was amplified by a PCR method and was measured. […]

Data set [2] can be described thus: Acute and chronic toxicity, intravenous. The data set is classed as in vivo, rabbit and dog. As for the experimental part: In order to investigate a toxicity in vivo, the solution which was mixed 50 μl/Kg of Yoshixol with 1 ml of 20% glucose solution was administered intravenously in unanesthetized animals (rabbit and dog). […] Even though intravenous administration alone was done, it may be confirmed that it is safety.

Data set [3] relates to human blood coagulation and fibrin formation. The experiment in a line: Human blood coagulation and fibrin formation, thromboelastgram and scanning electron microscopy. The data set is classed as biochemical. As for the experimental part: Effect of Yoshixol (4 μl) on human blood coagulation and fibrin formation (thrombin was added to fibrinogen) were investigated by thromboelastgram (Hellige GMBH, West Germany). Also, a magnitude of fibrin network which is formed at human blood coagulation was investigated by a scanning electron microscopy. Coagulation of human blood without treatment with Yoshixol was started within 1-2 min so that maximum level of coagulation occurred approximately within 15 min, followed by gradual decrease due to activation of fibrinolytic system. Immediately after thrombin is added on fibrinogen, viscosity of the sample started to increase, reached to a maximum level within 5-6 minutes. This maximum level was maintained for periods of 6 hours which was observed (referred FIG. 3a). However, when Yoshixol (4 μl) was added in 0.4 ml of whole blood or fibrinogen (160 mg/dl), onset time of blood coagulation and fibrin formation was delayed to 4-5 minutes and maximum aggregation time was occurred within 6-8 minutes. Maximum level of coagulation after the treatment was inhibited by 90% of control which level was maintained over 6 hours of investigation (referred FIG. 3b).

The subject of a further data set is HeLa cells. Nature of the data set: Anti-cancer effect, cultured HeLa cells. The data set is classed as cell-based. The conditions noted are these: compared with keratinocytes treated with Yoshixol.
For data set [4], the system named is rejected reaction on heterogeneous skin implantation. The experiment in a line: Heterogeneous skin implantation, donor skin pretreated with Yoshixol solution. The data set is classed as in vivo, rabbit and dog. An excerpt: Changes in transplanted skin for 3 months were observed by macroscopically and microscopically, when a piece of skin with entire layer (diameter 3 centimeter meter) at a region of the back of rabbit was transplanted to the region of the back of adult mongrel dog as the entire layer transplantation, and when a piece of skin with entire layer (diameter 3 centimeter meter) at a region of the back of adult mongrel dog was transplanted to the region of the back of rabbit as the entire layer transplantation. Firstly, each piece of skin from rabbit or dog was treated with 5 ml of physiological saline with 10 μl of the test solution for 2 minutes so that each skin piece was transplanted to each recipient by the surgical suture. Two kinds of the test solution were prepared for the above treatment; as control solution, basal solution consists of 2 ml of polyoxyethylene (20) sorbitan monoolate 1 (Wakou Jyunyaku Co.) which is identical to Tween 80 (ICI Ltd.) and 88 ml of physiological saline, and as treated solution, 10 ml of Yoshixol was added in the basal solution. And, 10 μl of Yoshixol was treated directly on the transplanted wound for 3 days after implantation. […] Then, implantated wound of the recipient was cured with a self regenerated skin of each recipient after 3 months. On the other hand, when a piece of transplanted skin is dipped in the Yoshixol solution, the treated skin became to be soft and increases in it's thickness. And, a suture procedure with surgical needle was easily done. […] So that an inflammatory tissue reaction was not also found after 1 month. […] Simultaneously with the above, Yoshixol can inhibit complications of infections on the donor tissues or organs, and can improve an implantation effect. Moreover, by using an entire layer (diameter 3 centimeter meter) of rabbit skin, changes in a piece of the transplanted skin which was sutured to the back of the dog as the recipient were investigated over 3 months after the implantation. […] An outer layer of the transplanted skin was faded 3 month after the implantation likely as to strip a thin membrane.

[5] abbreviates: rabbit and dog, 50 μl/Kg intravenously.

The structures appear in SMILES notation.

For the compound `C=C1CC(C)(C)C=CC1=O` [Yoshixol, 4,4-dimethyl-6-methylene-2-cyclohexen-1-one], the “PCR bounds, group P−, D−, Pm+” value in data set [1] (1 μl polymerase with 1 μl of Yoshixol, untreated 4 bounds between 0.5 and 1.2 kb) is given as “only one bound at lowest molecular weight within 4 bounds was appeared”. Besides, the “PCR bounds, group P−, D−, Pm+A” value in data set [1] (concentration of Yoshixol for the polymerase increased to 100 times) was “any kind of bounds did not observe”. Further, in data set [2] (setting [5]), the “duration of transitional signs after the administration” value was 1 to 2 min and the platelets entry is on record as “A change in platelets was not observed”. Further, the “pathological findings in the vital organs, macroscopically and microscopically” value in data set [2] (rabbit and dog, 50 μl/Kg intravenously, after 1 month) was “any pathological findings were not observed”. Besides, the abnormal behavior entry in data set [2] (rabbit and dog, 50 μl/Kg intravenously, observation period of 2 hours) is given as “an abnormal behavior was not found”. The abnormal behavior result in data set [2] (rabbit and dog, 50 μl/Kg intravenously, observed over 1 month) is given as “any abnormal behavior did not found”. In data set [2] (rabbit and dog, 50 μl/Kg intravenously, recovery to normal level at 1 week), the white blood cells entry is “increased 3 days after administration”. Moreover, the “examination of blood, anemia” value in data set [2] (rabbit and dog, 50 μl/Kg intravenously, recovery to the normal after 1 week) is “hyperchromic anemia at the maximum level occurred 3 days after administration”. In data set [2] (unanesthetized rabbit and dog, 50 μl/Kg intravenously in 1 ml 20% glucose solution), the “respiration rate, blood pressure, heart rate and movements of an extremity after injection” value is “transitional increase in respiration rate, increase in blood pressure and heart rate and active movements of an extremity (not convulsion)”. The maximum aggregation time in data set [3] (Yoshixol 4 μl in 0.4 ml whole blood or fibrinogen (160 mg/dl)) lay in the range of 6 to 8 min. Moreover, the “onset time of blood coagulation and fibrin formation” value in data set [3] (Yoshixol 4 μl in 0.4 ml whole blood or fibrinogen (160 mg/dl), untreated blood 1-2 min) is 4 to 5 min. In data set [3] (Yoshixol 4 μl in 0.4 ml, level maintained over 6 hours), the “inhibition of maximum level of coagulation” value was 90 % of control. Besides, the “rouleaux formation of erythrocyte and formation of fibrin net” value in data set [3] (morphological investigation, scanning electron microscopy) is “did not occur”. Moreover, the “structure between cells and cellular aspect” value in the data set with HeLa cells is reported as “observations similar to the above were found”. For the same compound, the “desquamation and deciduation of transplanted skin” value in data set [4] (skin dipped 2 minutes in Yoshixol solution, 10 μl on wound for 3 days, 2 weeks after implantation) was “did not show a desquamation and deciduation”. In addition, in data set [4] (skin dipped in Yoshixol solution, 10 μl on wound for 3 days), the “inflammation reaction of transplanted skin” value was “inhibited”. The transplanted wound result in data set [4] (skin dipped in Yoshixol solution, after 1 month) was “cured to a level which could not find a boundary with a skin of recipient”.
